From patent US5874402A, “Use of cell membrane permeants in the treatment of cellular proliferative diseases” (Matrix Pharmaceutical, Inc., priority 1997, dated 1999)

Key:
RIF-1 tumors = assay: RIF-1 murine tumor growth delay after intratumoral injection (days to 4× tumor volume; T/C); format: in vivo, murine (C3H mice); parameters: key to Treated (Table 7 column): days for tumors to reach 4x baseline volume
Protocol: When the introduced tumors reached 100 mm^3, the mice were ready for testing. During the course of the experiments, the treated and control tumors were measured three times per week by Vernier calipers and the tumor volumes were calculated using the following formula: […]
where D1 -D3 are tumor diameters in millimeters. The number of days for tumors to reach four times (4×) their baseline volume was used as a parameter of treatment effectiveness. Therefore, a longer delay in tumor growth meant greater antitumor efficacy.

C3H mice = assay: Lethal toxicity (deaths) after intratumoral injection in RIF-1 tumor-bearing C3H mice; format: in vivo
Protocol: For each of the following experiments, transplantable murine fibrosarcoma RIF-1 tumors were grown intradermally in the flank of 3-7 month old female C3H mice (2×10^5 cells were injected). When the introduced tumors reached 100 mm^3, the mice were ready for testing. During the course of the experiments, the treated and control tumors were measured three times per week by Vernier calipers and the tumor volumes were calculated using the following formula: […]

ovarian cancer cells = conditions: in vitro; cells first exposed to digitonin; cited from earlier work
[1] = Table 6, agent 40 mg/kg (BFA: DMSO as solvent), saponin 10 mg/kg 1 hr prior where combined
[2] = Table 7, dose printed 10, 4 mg/kg (saponin, vinblastine)

C[C@H]1CCC/C=C/[C@@H]2C[C@H](O)C[C@H]2[C@H](O)/C=C/C(=O)O1 [Brefeldin A(BFA), Brefeldin A]
T/C (ratio of tumor growth delay of treated tumors to untreated controls) (RIF-1 tumors; [1]): 2.6

C=C1O[C@@](CO)(n2cnc3c(N)ncnc32)[C@H](O)[C@@H]1O [Decoyinine]
T/C (ratio of tumor growth delay of treated tumors to untreated controls) (RIF-1 tumors; [1]): 1.0

C[C@H]1O[C@@H](O[C@H]2[C@@H](O)C[C@H](O[C@H]3[C@@H](O)C[C@H](O[C@H]4CC[C@@]5(C)[C@H](CC[C@@H]6[C@@H]5CC[C@]5(C)[C@@H](C7=CC(=O)OC7)CC[C@]65O)C4)O[C@@H]3C)O[C@@H]2C)C[C@H](O)[C@@H]1O [Digitoxin]
T/C (ratio of tumor growth delay of treated tumors to untreated controls) (RIF-1 tumors; Table 5, permeant 40 mg/kg, no TNF): 0.99

O=c1c(-c2ccc(O)cc2)coc2cc(O)cc(O)c12 [Genistein]
T/C (ratio of tumor growth delay of treated tumors to untreated controls) (RIF-1 tumors; Table 6, agent 80 mg/kg, saponin 10 mg/kg 1 hr prior where combined): 1.1

Cc1ccc(C(=O)Nc2ccc(S(=O)(=O)O)c3cc(S(=O)(=O)O)cc(S(=O)(=O)O)c23)cc1NC(=O)c1cccc(NC(=O)Nc2cccc(C(=O)Nc3cc(C(=O)Nc4ccc(S(=O)(=O)O)c5cc(S(=O)(=O)O)cc(S(=O)(=O)O)c45)ccc3C)c2)c1 [Suramin]
T/C (ratio of tumor growth delay of treated tumors to untreated controls) (RIF-1 tumors; Table 6, agent 20 mg/kg, saponin 10 mg/kg 1 hr prior where combined): 1.0

N#C/C(=C\c1ccc(O)c(O)c1)C(N)=S [Tyrphostin 47]
T/C (ratio of tumor growth delay of treated tumors to untreated controls) (RIF-1 tumors; Table 6, agent 60 mg/kg, EtOH as solvent, saponin 10 mg/kg 1 hr prior where combined): 1.1

CC[C@]1(O)C[C@@H]2CN(CCc3c([nH]c4ccccc34)[C@@](C(=O)OC)(c3cc4c(cc3OC)N(C)[C@H]3[C@@](O)(C(=O)OC)[C@H](OC(C)=O)[C@]5(CC)C=CCN6CC[C@]43[C@@H]65)C2)C1 [Vinblastine(VLB), Vinblastine]
Treated (Table 7 column) (RIF-1 tumors; [2]): 14.1 ± 1.57
Efficacy of vinblastine, in words (RIF-1 tumors; in conjunction with saponin (Table 7)): greatly enhances the efficacy of the vinblastine
Efficacy of vinblastine, in words (RIF-1 tumors; with saponin and collagen gel matrix (Table 7)): further enhances the efficacy of vinblastine
Toxicity Deaths/# mice (C3H mice; [2]): 0/5
Lethal toxic side effects, in words (C3H mice; vinblastine with saponin and collagen gel matrix (Table 7)): decreasing the observed lethal toxic side effects

N.N.[Cl][Pt][Cl] [cisplatin]
Uptake of cisplatin by ovarian cancer cells (ovarian cancer cells): enhanced uptake

Lysolecithin(type 1)
T/C (ratio of tumor growth delay of treated tumors to untreated controls) (RIF-1 tumors; Table 5, permeant 10 mg/kg, no TNF): 1.27

Neomycin sulfate [Neomycin sulfate (NS)]
T/C (ratio of tumor growth delay of treated tumors to untreated controls) (RIF-1 tumors; [1]): 0.7
